Measurements from publication PMC9661477, “New Dual P-Glycoprotein (P-gp) and Human Carbonic Anhydrase XII (hCA XII) Inhibitors as Multidrug Resistance (MDR) Reversers in Cancer Cells” (Journal of Medicinal Chemistry, 2022).
Where a name gives a salt, the structure may show the parent alone.

What was measured:
P-gp = target: T1, P-gp (Homo sapiens, UniProt P08183); experiment: calcein-AM transport inhibition in MDCK-MDR1 cells; format: cell-based; details: mean ± SEM
T1 construct: expressed in transfected cells; host or cells: MDCK-MDR1 (Madin-Darby Canine Kidney, transfected; gift from Prof; P. Borst, NKI-AVL)
Method: (§1) The inhibiting activity of the two compounds on P-gp and MRP1 was evaluated by measuring the transport inhibition of the profluorescent probe calcein-AM (P-gp and MRP1 substrate) in MDCK-MDR1 and MDCK-MRP1 cells (P-gp- and MRP1-overexpressing cells, respectively). The activity on BCRP was instead evaluated using the fluorescent probe Hoechst 33342 (BCRP substrate) in MDCK-BCRP cells (BCRP-overexpressing cells).[43]
(§2) MDCK-MDR1, MDCK-MRP1, and MDCK-BCRP cells are a gift from Prof. P. Borst, NKI-AVL Institute, Amsterdam, The Netherlands. Cells were grown in Dulbecco’s modified Eagle’s medium (DMEM) high glucose supplemented with 10% fetal bovine serum, 2 mM glutamine, 100 U/mL of penicillin, and 100 μg/mL of streptomycin in a humidified incubator at 37 °C with a 5% CO2 atmosphere. Cell culture reagents were purchased from Celbio s.r.l. (Milano, Italy). CulturePlate 96/wells plates were purchased from PerkinElmer Life Science (Waltham, MA) and Falcon (BD Biosciences, Bedford, MA). Calcein-AM and Hoechst 33342 (bisbenzimide H 33342 trihydrochloride) were obtained from Sigma-Aldrich (Milan, Italy). The other reagents were purchased from Sigma Merck Millipore.

MRP1 = target: T2, MRP1 (Homo sapiens, UniProt P33527); experiment: calcein-AM transport inhibition in MDCK-MRP1 cells; format: cell-based; details: NA, not active
T2 construct: expressed in transfected cells; host or cells: MDCK-MRP1 (Madin-Darby Canine Kidney, transfected; gift from Prof; P. Borst, NKI-AVL)
Method: as §1, §2

P-gp KO A549/DOX cells = experiment: intracellular accumulation of doxorubicin in P-gp KO A549/DOX cells; format: cell-based, human; details: 24 h with 5 μM doxorubicin, compound at 1 and 3 μM
Method: (§3) A 50 μL aliquot was sonicated and used for the measurement of the protein content. […] Fluorescence was converted in nmol/mg cell proteins using a calibration curve previously set.

P-gp KO HT29/DOX cells = experiment: intracellular accumulation of doxorubicin in P-gp KO HT29/DOX cells; format: cell-based, human; details: 24 h with 5 μM doxorubicin, compound at 1 and 3 μM
Method: as §3

HT29/DOX cells = experiment: intracellular accumulation of doxorubicin in HT29/DOX cells; format: cell-based, human; details: 24 h with 5 μM doxorubicin, compound at 1 and 3 μM, dose-dependent
Method: as §3

hCA II = hCA II (Homo sapiens, UniProt P00918); experiment: stopped-flow CO2 hydrase assay, hCA II; details: read-out: Ki hCA II; stopped-flow technique, mean from three different assays
Source text: (§4) An SX.18MV-R Applied Photophysics (Oxford, U.K.) stopped-flow instrument has been used to assay the catalytic/inhibition of various CA isozymes.[38] […] The inhibition constants were obtained by nonlinear least-squares methods using the Cheng–Prusoff equation, as reported earlier,[32] and represent the mean from at least three different determinations.

hCA I = hCA I (Homo sapiens, UniProt P00915); experiment: stopped-flow CO2 hydrase assay, hCA I; details: read-out: Ki hCA I; stopped-flow technique, mean from three different assays
Source text: as §4

hCA IX = hCA IX (Homo sapiens, UniProt Q16790); experiment: stopped-flow CO2 hydrase assay, hCA IX; details: read-out: Ki hCA IX; stopped-flow technique, mean from three different assays
Source text: as §4

A549/DOX cells = experiment: intracellular accumulation of doxorubicin in A549/DOX cells; format: cell-based, human; details: 24 h with 5 μM doxorubicin, compound at 1 and 3 μM, dose-dependent
Method: as §3

BCRP = target: T3, BCRP (Homo sapiens, UniProt Q9UNQ0); experiment: Hoechst 33342 transport inhibition in MDCK-BCRP cells; format: cell-based; details: NA, not active
T3 construct: expressed in transfected cells; host or cells: MDCK-BCRP (Madin-Darby Canine Kidney, transfected; gift from Prof; P. Borst, NKI-AVL)
T3 sequence (Q9UNQ0 1-655): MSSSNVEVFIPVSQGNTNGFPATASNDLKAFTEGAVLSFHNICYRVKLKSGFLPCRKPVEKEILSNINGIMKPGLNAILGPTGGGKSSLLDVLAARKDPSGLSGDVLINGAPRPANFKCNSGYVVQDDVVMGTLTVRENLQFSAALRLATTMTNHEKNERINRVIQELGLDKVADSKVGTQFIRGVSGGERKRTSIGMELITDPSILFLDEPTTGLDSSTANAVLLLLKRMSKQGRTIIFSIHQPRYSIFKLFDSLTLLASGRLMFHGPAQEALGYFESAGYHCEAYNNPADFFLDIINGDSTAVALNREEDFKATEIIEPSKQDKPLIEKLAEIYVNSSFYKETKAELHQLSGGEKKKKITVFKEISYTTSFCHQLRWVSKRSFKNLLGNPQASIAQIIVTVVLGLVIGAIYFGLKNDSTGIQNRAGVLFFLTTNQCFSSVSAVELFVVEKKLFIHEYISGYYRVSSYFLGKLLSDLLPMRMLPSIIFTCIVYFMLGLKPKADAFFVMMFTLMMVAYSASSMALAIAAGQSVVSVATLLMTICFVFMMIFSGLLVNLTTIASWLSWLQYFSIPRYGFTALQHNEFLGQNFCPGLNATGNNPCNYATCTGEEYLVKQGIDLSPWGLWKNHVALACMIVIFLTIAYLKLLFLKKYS
Method: as §1, §2

[1] = stability in human plasma, LC-MS/MS; format: in vitro ADME; details: reference compound, read-out: half-life (t1/2)
Method: The chemical stability of all of these diester derivatives was evaluated in phosphate-buffered solution (PBS) and human plasma samples. The stability analyses were performed by liquid chromatography coupled with a triple quadrupole mass spectrometry system (LC-MS/MS), operating in multiple reaction monitoring (MRM) mode. The LC-MS/MS instrument and parameters used are reported in the Supporting Information.
In these assays, we monitored the variation of our diester molecules’ concentration at four different incubation times both in PBS and in human plasma samples to evaluate their susceptibility toward spontaneous or enzymatic hydrolysis, respectively. By plotting any variation of analyte concentration vs the incubation time, the corresponding degradation profiles in both the tested matrices were obtained. […] Therefore, by plotting the natural logarithm of the quantitative data versus the incubation time, a linear function can be used, and its slope represents the degradation rate constant (k). Accordingly, with the linear function, the half-life (t1/2) of each tested compound can be calculated as follows [drawing 1] […]
Each set of samples was incubated in triplicate at four different times, 0, 30, 60, and 120 min at 37 °C. […] The obtained sample solutions were analyzed by LC-MS/MS methods described in the Supporting Information.

hCA I, sequence (P00915 whole entry): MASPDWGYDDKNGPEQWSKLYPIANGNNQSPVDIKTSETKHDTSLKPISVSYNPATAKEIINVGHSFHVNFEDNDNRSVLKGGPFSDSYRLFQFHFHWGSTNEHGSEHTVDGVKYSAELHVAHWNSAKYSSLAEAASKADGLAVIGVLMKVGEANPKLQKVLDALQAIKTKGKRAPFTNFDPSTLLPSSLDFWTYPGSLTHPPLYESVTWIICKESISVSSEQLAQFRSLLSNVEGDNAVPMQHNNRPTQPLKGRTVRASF
T1 sequence (P08183 whole entry): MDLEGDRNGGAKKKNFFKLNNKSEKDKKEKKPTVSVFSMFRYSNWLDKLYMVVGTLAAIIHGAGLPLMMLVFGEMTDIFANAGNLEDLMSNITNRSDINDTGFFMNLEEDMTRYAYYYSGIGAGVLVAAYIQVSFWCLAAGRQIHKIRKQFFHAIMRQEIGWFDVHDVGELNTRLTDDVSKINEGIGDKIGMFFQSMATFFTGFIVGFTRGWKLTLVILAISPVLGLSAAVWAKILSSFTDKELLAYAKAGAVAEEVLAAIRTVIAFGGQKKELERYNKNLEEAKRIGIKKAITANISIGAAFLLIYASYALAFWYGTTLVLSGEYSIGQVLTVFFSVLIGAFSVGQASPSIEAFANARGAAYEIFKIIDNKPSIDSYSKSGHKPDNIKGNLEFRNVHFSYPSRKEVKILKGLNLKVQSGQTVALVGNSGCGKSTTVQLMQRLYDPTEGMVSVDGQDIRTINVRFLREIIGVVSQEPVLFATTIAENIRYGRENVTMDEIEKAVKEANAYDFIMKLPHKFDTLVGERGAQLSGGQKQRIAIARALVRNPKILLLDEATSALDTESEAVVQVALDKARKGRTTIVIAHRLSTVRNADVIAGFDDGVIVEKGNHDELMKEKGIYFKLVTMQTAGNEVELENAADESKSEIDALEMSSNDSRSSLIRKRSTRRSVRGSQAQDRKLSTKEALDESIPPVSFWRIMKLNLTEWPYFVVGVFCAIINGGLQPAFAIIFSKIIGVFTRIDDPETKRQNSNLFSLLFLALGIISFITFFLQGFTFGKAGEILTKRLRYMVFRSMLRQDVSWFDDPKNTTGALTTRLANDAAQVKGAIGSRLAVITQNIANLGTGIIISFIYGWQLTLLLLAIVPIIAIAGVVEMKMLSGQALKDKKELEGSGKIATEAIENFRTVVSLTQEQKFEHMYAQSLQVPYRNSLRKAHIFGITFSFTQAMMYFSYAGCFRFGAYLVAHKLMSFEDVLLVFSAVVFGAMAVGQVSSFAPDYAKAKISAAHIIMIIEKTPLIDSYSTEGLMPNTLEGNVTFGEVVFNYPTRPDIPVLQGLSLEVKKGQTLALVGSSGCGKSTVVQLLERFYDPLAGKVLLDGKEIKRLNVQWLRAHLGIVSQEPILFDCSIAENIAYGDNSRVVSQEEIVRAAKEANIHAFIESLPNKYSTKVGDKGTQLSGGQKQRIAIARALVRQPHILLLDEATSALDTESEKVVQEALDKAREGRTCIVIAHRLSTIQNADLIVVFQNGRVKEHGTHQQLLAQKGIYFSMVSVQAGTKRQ
T2 sequence (P33527 whole entry): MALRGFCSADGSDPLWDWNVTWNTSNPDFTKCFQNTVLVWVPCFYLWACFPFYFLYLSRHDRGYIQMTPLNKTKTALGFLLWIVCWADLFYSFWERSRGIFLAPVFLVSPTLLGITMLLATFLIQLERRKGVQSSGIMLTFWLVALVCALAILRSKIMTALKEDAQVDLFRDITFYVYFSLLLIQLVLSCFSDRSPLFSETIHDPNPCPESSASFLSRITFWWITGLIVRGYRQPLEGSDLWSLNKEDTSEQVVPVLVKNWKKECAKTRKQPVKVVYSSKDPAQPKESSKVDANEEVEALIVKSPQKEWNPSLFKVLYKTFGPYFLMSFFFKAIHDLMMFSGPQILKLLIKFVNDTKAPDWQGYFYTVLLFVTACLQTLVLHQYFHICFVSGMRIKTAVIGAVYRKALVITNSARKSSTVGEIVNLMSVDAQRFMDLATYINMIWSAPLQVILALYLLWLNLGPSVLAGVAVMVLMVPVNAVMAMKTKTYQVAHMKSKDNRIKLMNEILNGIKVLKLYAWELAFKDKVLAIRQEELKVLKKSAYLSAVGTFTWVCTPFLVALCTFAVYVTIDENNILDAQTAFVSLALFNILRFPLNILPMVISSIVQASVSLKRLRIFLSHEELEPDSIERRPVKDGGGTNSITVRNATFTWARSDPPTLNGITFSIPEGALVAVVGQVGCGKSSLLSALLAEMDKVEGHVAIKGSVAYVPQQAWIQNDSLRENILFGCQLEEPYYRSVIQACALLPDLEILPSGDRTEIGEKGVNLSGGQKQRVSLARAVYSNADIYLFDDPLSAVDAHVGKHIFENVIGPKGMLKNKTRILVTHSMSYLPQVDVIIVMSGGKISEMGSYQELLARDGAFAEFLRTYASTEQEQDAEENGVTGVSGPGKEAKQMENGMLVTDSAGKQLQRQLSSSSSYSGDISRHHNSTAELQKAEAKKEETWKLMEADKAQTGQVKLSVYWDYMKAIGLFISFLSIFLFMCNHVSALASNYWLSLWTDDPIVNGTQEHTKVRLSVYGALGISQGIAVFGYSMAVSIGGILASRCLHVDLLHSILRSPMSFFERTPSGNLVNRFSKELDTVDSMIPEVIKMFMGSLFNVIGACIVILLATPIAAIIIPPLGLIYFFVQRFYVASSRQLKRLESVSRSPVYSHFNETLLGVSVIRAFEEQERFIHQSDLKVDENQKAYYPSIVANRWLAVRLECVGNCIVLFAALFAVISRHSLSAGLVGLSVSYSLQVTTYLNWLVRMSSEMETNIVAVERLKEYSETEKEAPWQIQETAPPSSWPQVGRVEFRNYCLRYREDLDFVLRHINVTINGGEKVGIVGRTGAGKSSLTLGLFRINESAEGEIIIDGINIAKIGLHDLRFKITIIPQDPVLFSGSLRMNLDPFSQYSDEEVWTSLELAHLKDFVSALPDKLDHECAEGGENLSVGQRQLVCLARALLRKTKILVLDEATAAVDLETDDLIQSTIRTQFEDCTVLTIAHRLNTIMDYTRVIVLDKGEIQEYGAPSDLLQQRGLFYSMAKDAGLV

In the case of `COc1cc(C(=O)OCCCCCCCN(CCCOC(=O)c2cc(OC)c(OC)c(OC)c2)CCCOc2ccc3ccc(=O)oc3c2)cc(OC)c1OC` (as salt: hydrochloride) [Compound 23, 7-((3-((2-Oxo-2H-chromen-7-yl)oxy)propyl)(3-((3,4,5-trimethoxybenzoyl)oxy)propyl)amino)heptyl 3,4,5-Trimethoxybenzoate], the melting point is reported as 74 to 77 °C.
For `COc1cc(C(=O)OCCCCCCCN(CCCOC(=O)c2c3ccccc3cc3ccccc23)CCCOc2ccc3ccc(=O)oc3c2)cc(OC)c1OC` (as salt: hydrochloride) [Compound 24, 3-((3-((2-Oxo-2H-chromen-7-yl)oxy)propyl)(7-((3,4,5-trimethoxybenzoyl)oxy)heptyl)amino)propyl Anthracene-9-carboxylate], the melting point was 75 to 77 °C.
In the case of `COc1cc(/C=C/C(=O)OCCCN(CCCCCCCOC(=O)c2c3ccccc3cc3ccccc23)CCCOc2ccc3ccc(=O)oc3c2)cc(OC)c1OC` (as salt: hydrochloride) [Compound 25, (E)-7-((3-((2-Oxo-2H-chromen-7-yl)oxy)propyl)(3-((3-(3,4,5-trimethoxyphenyl)acryloyl)oxy)propyl)amino)heptyl Anthracene-9-carboxylate], the melting point is reported as 107 to 110 °C.
Compound `COc1cc(C(=O)OCCCN(CCCCCCCOC(=O)c2c3ccccc3cc3ccccc23)CCCOc2ccc3ccc(=O)oc3c2)cc(OC)c1OC` (as salt: hydrochloride) [Compound 26, 7-((3-((2-Oxo-2H-chromen-7-yl)oxy)propyl)(3-((3,4,5-trimethoxybenzoyl)oxy)propyl)amino)heptyl Anthracene-9-carboxylate] has a melting point of 97 to 99 °C.
Compound `O=C(OCCCCCCCN(CCCOC(=O)c1c2ccccc2cc2ccccc12)CCCOc1ccc2ccc(=O)oc2c1)c1c2ccccc2cc2ccccc12` (as salt: hydrochloride) [Compound 27, 3-((7-((Anthracene-9-carbonyl)oxy)heptyl)(3-((2-oxo-2H-chromen-7-yl)oxy)propyl)amino)propyl Anthracene-9-carboxylate] has a melting point of 117 to 119 °C.
With `COc1cc(C(=O)OCCCCCN(CCCOC(=O)c2cc(OC)c(OC)c(OC)c2)CCCOc2ccc3ccc(=O)oc3c2)cc(OC)c1OC` [Compound 5, 5-((3-((2-Oxo-2H-chromen-7-yl)oxy)propyl)(3-((3,4,5-trimethoxybenzoyl)oxy)propyl)amino)pentyl 3,4,5-Trimethoxybenzoate] the EC50 (P-gp) was 150 ± 20 nM, the “EC50 MRP1” value (MRP1) was “completely inactive” and the “intracellular retention of doxorubicin” value (P-gp KO A549/DOX cells) was “did not significantly increase”. The “intracellular retention of doxorubicin” value (P-gp KO HT29/DOX cells) was “did not significantly increase”, the “intracellular retention of doxorubicin” value (HT29/DOX cells) was “increased” and the Ki (hCA II) was > 10000 nM. For the same compound, the Ki (hCA I) was > 10000 nM, the Ki (hCA IX) was 40.7 nM and the “intracellular retention of doxorubicin” value (A549/DOX cells) was “increased”. The “EC50 BCRP” value (BCRP) was “completely inactive”.
For `COc1cc(C(=O)OCCCCCCN(CCCOC(=O)c2cc(OC)c(OC)c(OC)c2)CCCOc2ccc3ccc(=O)oc3c2)cc(OC)c1OC` [Compound 14, 6-((3-((2-Oxo-2H-chromen-7-yl)oxy)propyl)(3-((3,4,5-trimethoxybenzoyl)oxy)propyl)amino)hexyl 3,4,5-Trimethoxybenzoate], the EC50 (P-gp) was 180 ± 30 nM, the “EC50 MRP1” value (MRP1) was “completely inactive” and the “intracellular retention of doxorubicin” value (P-gp KO A549/DOX cells) was “did not significantly increase”. The “intracellular retention of doxorubicin” value (P-gp KO HT29/DOX cells) was “did not significantly increase”, the “intracellular retention of doxorubicin” value (HT29/DOX cells) was “increased” and the Ki (hCA II) was > 10000 nM. The Ki (hCA I) was > 10000 nM, the Ki (hCA IX) was 82.7 nM and the “intracellular retention of doxorubicin” value (A549/DOX cells) was “increased”. The “EC50 BCRP” value (BCRP) was “completely inactive”.
With `CCOC(=O)C(C)c1cccc(C(=O)c2ccccc2)c1` (centres unmarked) [KEE, ketoprofen ethyl ester] the half-life at 1 μM [1] was ≤ 2 h.
